Assay results from ChEMBL document CHEMBL1201861, “Genomics of Drug Sensitity in Cancer screening data, Wellcome Trust Sanger Institute”.

Tests used:
Assay in all cases: cells
GOTO = assay type: functional, cell-based, Homo sapiens; conditions: Homo sapiens, GOTO;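 further: growth inhibition of GOTO cells, read out by a cell viability assay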
Description: SANGER: Inhibition of human GOTO cell growth in a cell viability assay.

MPP-89 = assay type: functional, cell-based, Homo sapiens; conditions: Homo sapiens, MPP-89;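 further: growth inhibition of human MPP-89 cells, read out with a cell viability assay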
Description: SANGER: Inhibition of human MPP-89 cell growth in a cell viability assay.

NCI-H526 = assay type: functional, cell-based, Homo sapiens; conditions: Homo sapiens, NCI-H526;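 further: growth inhibition of the human NCI-H526 cell line, measured by a cell viability assay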
Description: SANGER: Inhibition of human NCI-H526 cell growth in a cell viability assay.

C2BBe1 = assay type: functional, cell-based, Homo sapiens; conditions: Homo sapiens, C2BBe1;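 further: growth inhibition of C2BBe1 cells, read out through a viability assay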
Description: SANGER: Inhibition of human C2BBe1 cell growth in a cell viability assay.

GB-1 = assay type: functional, cell-based, Homo sapiens; conditions: Homo sapiens, GB-1;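 further: growth of GB-1 cells judged by a viability assay, IC50 marks the concentration inhibiting growth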
Description: SANGER: Inhibition of human GB-1 cell growth in a cell viability assay.

BE-13 = assay type: functional, cell-based, Homo sapiens; conditions: Homo sapiens, BE-13;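 further: growth inhibition of human BE-13 cells, measured with a cell viability assay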
Description: SANGER: Inhibition of human BE-13 cell growth in a cell viability assay.

NB69 = assay type: functional, cell-based, Homo sapiens; conditions: Homo sapiens, NB69;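 further: growth inhibition of NB69 cells, determined by a cell viability assay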
Description: SANGER: Inhibition of human NB69 cell growth in a cell viability assay.

SNU-C2B = assay type: functional, cell-based, Homo sapiens; conditions: Homo sapiens, SNU-C2B;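 further: cell viability readout used to measure compound-driven suppression of SNU-C2B cell proliferation, IC50 marking half-maximal growth inhibition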
Description: SANGER: Inhibition of human SNU-C2B cell growth in a cell viability assay.

DU-4475 = assay type: functional, cell-based, Homo sapiens; conditions: Homo sapiens, DU-4475
Description: SANGER: Inhibition of human DU-4475 cell growth in a cell viability assay.

EM-2 = assay type: functional, cell-based, Homo sapiens; conditions: Homo sapiens, EM-2;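 further: growth inhibition of EM-2 cells, read out with a cell viability assay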
Description: SANGER: Inhibition of human EM-2 cell growth in a cell viability assay.

NCI-H1395 = assay type: functional, cell-based, Homo sapiens; conditions: Homo sapiens, NCI-H1395;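 further: cell viability assay read-out quantifying reduced proliferation of human NCI-H1395 cells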
Description: SANGER: Inhibition of human NCI-H1395 cell growth in a cell viability assay.

HOP-62 = assay type: functional, cell-based, Homo sapiens; conditions: Homo sapiens, HOP-62;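 further: cell growth inhibition determined with a viability assay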
Description: SANGER: Inhibition of human HOP-62 cell growth in a cell viability assay.

RCC10RGB = assay type: functional, cell-based, Homo sapiens; conditions: Homo sapiens, RCC10RGB;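 further: growth inhibition of human RCC10RGB cells, read out by a cell viability assay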
Description: SANGER: Inhibition of human RCC10RGB cell growth in a cell viability assay.

MMAC-SF = assay type: functional, cell-based, Homo sapiens; conditions: Homo sapiens, MMAC-SF;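 further: growth inhibition of human MMAC-SF cells, read out with a cell viability assay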
Description: SANGER: Inhibition of human MMAC-SF cell growth in a cell viability assay.

GI-1 = assay type: functional, cell-based, Homo sapiens; conditions: Homo sapiens, GI-1;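 further: growth inhibition of human GI-1 cells, measured with a cell viability readout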
Description: SANGER: Inhibition of human GI-1 cell growth in a cell viability assay.

NB13 = assay type: functional, cell-based, Homo sapiens; conditions: Homo sapiens, NB13;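 further: cell viability readout measuring growth inhibition of human NB13 cells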
Description: SANGER: Inhibition of human NB13 cell growth in a cell viability assay.

CAS-1 = assay type: functional, cell-based, Homo sapiens; conditions: Homo sapiens, CAS-1;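 further: growth inhibition of CAS-1 cells, measured with a cell viability assay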
Description: SANGER: Inhibition of human CAS-1 cell growth in a cell viability assay.

U-266 = assay type: functional, cell-based, Homo sapiens; conditions: Homo sapiens, U-266
Description: SANGER: Inhibition of human U-266 cell growth in a cell viability assay.

IST-MES1 = assay type: functional, cell-based, Homo sapiens; conditions: Homo sapiens, IST-MES1;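 further: growth inhibition of IST-MES1 cells, measured with a cell viability assay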
Description: SANGER: Inhibition of human IST-MES1 cell growth in a cell viability assay.

TE-6 = assay type: functional, cell-based, Homo sapiens; conditions: Homo sapiens, TE-6;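 further: growth inhibition of TE-6 cells, read out with a cell viability assay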
Description: SANGER: Inhibition of human TE-6 cell growth in a cell viability assay.

RS4-11 = assay type: functional, cell-based, Homo sapiens; conditions: Homo sapiens, RS4-11;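 further: growth inhibition of RS4-11 cells, read out by a cell viability assay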
Description: SANGER: Inhibition of human RS4-11 cell growth in a cell viability assay.

GI-ME-N = assay type: functional, cell-based, Homo sapiens; conditions: Homo sapiens, GI-ME-N;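 further: growth inhibition of human GI-ME-N cells, read out with a cell viability assay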
Description: SANGER: Inhibition of human GI-ME-N cell growth in a cell viability assay.

MSTO-211H = assay type: functional, cell-based, Homo sapiens; conditions: Homo sapiens, MSTO-211H
Description: SANGER: Inhibition of human MSTO-211H cell growth in a cell viability assay.

CGTH-W-1 = assay type: functional, cell-based, Homo sapiens; conditions: Homo sapiens, CGTH-W-1;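 further: growth inhibition of human CGTH-W-1 cells measured by cell viability assay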
Description: SANGER: Inhibition of human CGTH-W-1 cell growth in a cell viability assay.

MOLT-16 = assay type: functional, cell-based, Homo sapiens; conditions: Homo sapiens, MOLT-16;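 further: growth inhibition of human MOLT-16 cells, read out with a cell viability assay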
Description: SANGER: Inhibition of human MOLT-16 cell growth in a cell viability assay.

TE-11 = assay type: functional, cell-based, Homo sapiens; conditions: Homo sapiens, TE-11;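 further: growth inhibition of human TE-11 cells, read out by a cell viability assay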
Description: SANGER: Inhibition of human TE-11 cell growth in a cell viability assay.

NCI-H510A = assay type: functional, cell-based, Homo sapiens; conditions: Homo sapiens, NCI-H510A;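 further: growth inhibition of NCI-H510A cells, read out with a cell viability assay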
Description: SANGER: Inhibition of human NCI-H510A cell growth in a cell viability assay.

D-247MG = assay type: functional, cell-based, Homo sapiens; conditions: Homo sapiens, D-247MG
Description: SANGER: Inhibition of human D-247MG cell growth in a cell viability assay.

OS-RC-2 = assay type: functional, cell-based, Homo sapiens; conditions: Homo sapiens, OS-RC-2;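 further: growth inhibition of human OS-RC-2 cells, measured by a cell viability assay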
Description: SANGER: Inhibition of human OS-RC-2 cell growth in a cell viability assay.

NCI-H747 = assay type: functional, cell-based, Homo sapiens; conditions: Homo sapiens, NCI-H747;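 further: growth inhibition of human NCI-H747 cells, read out by a cell viability assay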
Description: SANGER: Inhibition of human NCI-H747 cell growth in a cell viability assay.

Ramos-2G6-4C10 = assay type: functional, cell-based, Homo sapiens; conditions: Homo sapiens, Ramos-2G6-4C10;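 further: growth inhibition of the cell line, measured by a cell viability read-out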
Description: SANGER: Inhibition of human Ramos-2G6-4C10 cell growth in a cell viability assay.

DSH1 = assay type: functional, cell-based, Homo sapiens; conditions: Homo sapiens, DSH1;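 further: growth inhibition of human DSH1 cells, measured with a cell viability readout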
Description: SANGER: Inhibition of human DSH1 cell growth in a cell viability assay.

U-87 MG = assay type: functional, cell-based, Homo sapiens, U-87MG ATCC; conditions: Homo sapiens, U-87 MG;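 further: growth inhibition of the cells measured with a viability assay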
Description: SANGER: Inhibition of human U-87-MG cell growth in a cell viability assay.

D-502MG = assay type: functional, cell-based, Homo sapiens; conditions: Homo sapiens, D-502MG
Description: SANGER: Inhibition of human D-502MG cell growth in a cell viability assay.

K5 = assay type: functional, cell-based, Homo sapiens; conditions: Homo sapiens, K5
Description: SANGER: Inhibition of human K5 cell growth in a cell viability assay.

TK-10 = assay type: functional, cell-based, Homo sapiens; conditions: Homo sapiens, TK-10;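 further: growth inhibition of TK-10 cells, read out in a cell viability assay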
Description: SANGER: Inhibition of human TK10 cell growth in a cell viability assay.

EW-3 = assay type: functional, cell-based, Homo sapiens; conditions: Homo sapiens, EW-3;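 further: cell viability assay read-out, IC50 reflects inhibition of growth of the EW-3 cells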
Description: SANGER: Inhibition of human EW-3 cell growth in a cell viability assay.

OCUB-M = assay type: functional, cell-based, Homo sapiens; conditions: Homo sapiens, OCUB-M;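 further: growth inhibition of the cancer cell line, read out through a cell viability assay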
Description: SANGER: Inhibition of human OCUB-M cell growth in a cell viability assay.

HDLM-2 = assay type: functional, cell-based, Homo sapiens; conditions: Homo sapiens, HDLM-2;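 further: cell viability assay measuring suppression of HDLM-2 proliferation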
Description: SANGER: Inhibition of human HDLM-2 cell growth in a cell viability assay.

NCI-H1304 = assay type: functional, cell-based, Homo sapiens; conditions: Homo sapiens, NCI-H1304;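 further: growth inhibition of the cancer cell line, measured in a cell viability assay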
Description: SANGER: Inhibition of human NCI-H1304 cell growth in a cell viability assay.

SK-MEL-1 = assay type: functional, cell-based, Homo sapiens; conditions: Homo sapiens, SK-MEL-1;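 further: growth inhibition of human SK-MEL-1 cells, read out by a cell viability assay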
Description: SANGER: Inhibition of human SK-MEL-1 cell growth in a cell viability assay.

SK-NEP-1 = assay type: functional, cell-based, Homo sapiens; conditions: Homo sapiens, SK-NEP-1;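 further: growth inhibition of human SK-NEP-1 cells, read out by a cell viability assay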
Description: SANGER: Inhibition of human SK-NEP-1 cell growth in a cell viability assay.

NCI-H1355 = assay type: functional, cell-based, Homo sapiens; conditions: Homo sapiens, NCI-H1355;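 further: growth inhibition of human NCI-H1355 cells, read out by a cell viability assay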
Description: SANGER: Inhibition of human NCI-H1355 cell growth in a cell viability assay.

IA-LM = assay type: functional, cell-based, Homo sapiens; conditions: Homo sapiens, IA-LM;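 further: cell viability assay measuring growth inhibition of human IA-LM cells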
Description: SANGER: Inhibition of human IA-LM cell growth in a cell viability assay.

EW-11 = assay type: functional, cell-based, Homo sapiens; conditions: Homo sapiens, EW-11;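 further: growth inhibition of human EW-11 cells, measured with a cell viability assay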
Description: SANGER: Inhibition of human EW-11 cell growth in a cell viability assay.

KS-1 = assay type: functional, cell-based, Homo sapiens; conditions: Homo sapiens, KS-1;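 further: growth inhibition of KS-1 cells, read out with a cell viability assay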
Description: SANGER: Inhibition of human KS-1 cell growth in a cell viability assay.

D283 Med = assay type: functional, cell-based, Homo sapiens; conditions: Homo sapiens, D283 Med
Description: SANGER: Inhibition of human D-283MED cell growth in a cell viability assay.

IST-SL1 = assay type: functional, cell-based, Homo sapiens; conditions: Homo sapiens, IST-SL1;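 further: growth inhibition of human IST-SL1 cells, read out with a cell viability assay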
Description: SANGER: Inhibition of human IST-SL1 cell growth in a cell viability assay.

EW-24 = assay type: functional, cell-based, Homo sapiens; conditions: Homo sapiens, EW-24;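 further: human EW-24 cancer cell line, growth inhibition read out via a cell viability assay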
Description: SANGER: Inhibition of human EW-24 cell growth in a cell viability assay.

Compound: CO[C@H]1C[C@@H]2CC[C@@H](C)[C@@](O)(O2)C(=O)C(=O)N2CCCC[C@H]2C(=O)O[C@H]([C@H](C)C[C@@H]2CC[C@@H](OC(=O)C(C)(CO)CO)[C@H](OC)C2)CC(=O)[C@H](C)/C=C(\C)[C@@H](O)[C@@H](OC)C(=O)[C@H](C)C[C@H](C)/C=C/C=C/C=C/1C [TEMSIROLIMUS]
- IC50 (GOTO): > 200 nM
- IC50 (MPP-89): > 200 nM
- IC50 (NCI-H526): 61.6 nM
- IC50 (C2BBe1): > 200 nM
- IC50 (GB-1): > 200 nM
- IC50 (BE-13): 4.91 nM
- IC50 (NB69): 9.46 nM
- IC50 (SNU-C2B): > 200 nM
- IC50 (DU-4475): 11.7 nM
- IC50 (EM-2): 54.2 nM
- IC50 (NCI-H1395): > 200 nM
- IC50 (HOP-62): > 200 nM
- IC50 (RCC10RGB): > 200 nM
- IC50 (MMAC-SF): > 200 nM
- IC50 (GI-1): 107 nM
- IC50 (NB13): > 200 nM
- IC50 (CAS-1): > 200 nM
- IC50 (U-266): 151 nM
- IC50 (IST-MES1): > 200 nM
- IC50 (TE-6): 189 nM
- IC50 (RS4-11): 8.45 nM
- IC50 (GI-ME-N): > 200 nM
- IC50 (MSTO-211H): 60.1 nM
- IC50 (CGTH-W-1): 5.75 nM
- IC50 (MOLT-16): 12.8 nM
- IC50 (TE-11): > 200 nM
- IC50 (NCI-H510A): > 200 nM
- IC50 (D-247MG): > 200 nM
- IC50 (OS-RC-2): 17 nM
- IC50 (NCI-H747): > 200 nM
- IC50 (Ramos-2G6-4C10): 0.342 nM
- IC50 (DSH1): > 200 nM
- IC50 (U-87 MG): > 200 nM
- IC50 (D-502MG): > 200 nM
- IC50 (K5): 1.33 nM
- IC50 (TK-10): > 200 nM
- IC50 (EW-3): 49.2 nM
- IC50 (OCUB-M): > 200 nM
- IC50 (HDLM-2): > 200 nM
- IC50 (NCI-H1304): > 200 nM
- IC50 (SK-MEL-1): > 200 nM
- IC50 (SK-NEP-1): 1.49 nM
- IC50 (NCI-H1355): 55.9 nM
- IC50 (IA-LM): > 200 nM
- IC50 (EW-11): 15.6 nM
- IC50 (KS-1): 63.5 nM
- IC50 (D283 Med): > 200 nM
- IC50 (IST-SL1): > 200 nM
- IC50 (EW-24): > 200 nM
